The record followed here is patent publication US20100261766A1, “Phenyl-Oxetanyl-Derivatives” (priority 2007, published 2010).

Experiment [1] deals with experimental autoimmune encephalomyelitis (EAE). In words: Acute EAE model. It counts as in vivo, Lewis rats. The conditions noted are these: 10 mg/kg b.i.d., oral gavage, days 0-13.
The target in the next experiment is S1P5 receptor (Homo sapiens, UniProt Q9H228). In words: S1P5 GTP[γ-35S] binding assay, membranes of CHO cells. It counts as biochemical. The conditions noted are these: agonistic activity in vitro; read-out: S1P-5 GTPyS/EC50. Here is the method: (§1) A. In Vitro: GPCR Activation Assay Measuring GTP [γ-^35S] Binding to Membranes Prepared from CHO Cells Expressing Human EDG Receptors
Sequence of S1P5 receptor (Q9H228 whole entry): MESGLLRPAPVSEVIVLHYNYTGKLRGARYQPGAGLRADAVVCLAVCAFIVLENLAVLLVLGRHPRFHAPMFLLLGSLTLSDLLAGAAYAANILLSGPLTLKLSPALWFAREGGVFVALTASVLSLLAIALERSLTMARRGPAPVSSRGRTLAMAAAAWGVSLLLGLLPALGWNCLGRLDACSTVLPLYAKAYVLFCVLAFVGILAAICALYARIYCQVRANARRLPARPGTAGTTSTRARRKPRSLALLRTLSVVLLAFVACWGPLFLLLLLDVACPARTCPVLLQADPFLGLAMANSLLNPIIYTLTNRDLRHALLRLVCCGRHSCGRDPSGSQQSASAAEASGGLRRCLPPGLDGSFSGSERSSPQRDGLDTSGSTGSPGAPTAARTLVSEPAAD
(§2) Serial dilutions of compounds (stock in 10 mM DMSO) are prepared by first diluting the compounds in DMSO (1:10) followed by a 1:20 dilution into assay buffer (50 mM HEPES, pH 7.4, 5 mM MgCl2, 1 mM CaCl2, 1% fatty acid-free BSA). S1P (1 mM in DMSO/HCl) is diluted directly into assay buffer. The desired amount of membranes (1-5 μg/well) is diluted with assay buffer containing 10 μM GDP, 25 μg/mL Saponin and 5 mg/mL WGA-SPA beads. 9 μL of pre-diluted compound is placed into the bottom of a 96-well deep-well plate. 440 μL of the membrane-WGA-SPA bead slurry is added and the plate stirred for 15 minutes. Then twice 210 μL are transferred each into a 96-well Optiplate containing 15 μL GTP [γ-^35S] (4 nM in assay buffer). After incubation at room temperature for 120 minutes under constant shaking the plates are centrifuged for 10 minutes at 1000 g to pellet the membrane-SPA beads slurry. Then the plates are measured in a TOPcount NXT. Eight different concentrations of compound are used to generate a concentration response curve (using two data points per concentration) and the corresponding EC50 value using the curve-fitting tool of GraphPad Prism.
For each membrane preparation, titration experiments are first run with S1P control to determine the optimal amount of membranes to be added per assay well.

The test system of experiment [2] is experimental autoimmune uveitis (EAU). As to the kind of experiment: S-antigen-induced experimental autoimmune uveitis (EAU). It counts as in vivo, Lewis rats. The conditions noted are these: 3 and 10 mg/kg bid p.o., day 7 to day 18 post-immunization.
Another experiment relates to circulating lymphocytes. In words: Blood lymphocyte depletion in rats. It counts as in vivo, Lewis rats. As to conditions: for recovery of lymphocyte counts back to baseline: within 48 hours. Here is the method:
Measurement of circulating lymphocytes: Lewis rats (male, 6-12 weeks old) are orally administered with 0.1 to 5 mg/kg of compound (4 ml/kg vehicle, e.g. in max. 2% DMSO/max. 2% PEG200/water or 0.5% methyl cellulose). A vehicle group is included as negative control.
Blood is collected from the sublingual vein at baseline (0 h) and 2, 6, 24 and 48 hours after administration under short isoflurane anesthesia. Whole blood samples are subjected to hematology analysis. Peripheral lymphocyte counts are determined using an automated analyzer. Two to four rats are used to assess the lymphocyte counts of each dose.

For experiment [3], the target named is T1, human S1P1 (EDG-1) receptor (Homo sapiens, UniProt P21453).
T1 construct: c-myc (N); expressed in transfected cells
T1 sequence (P21453 whole entry): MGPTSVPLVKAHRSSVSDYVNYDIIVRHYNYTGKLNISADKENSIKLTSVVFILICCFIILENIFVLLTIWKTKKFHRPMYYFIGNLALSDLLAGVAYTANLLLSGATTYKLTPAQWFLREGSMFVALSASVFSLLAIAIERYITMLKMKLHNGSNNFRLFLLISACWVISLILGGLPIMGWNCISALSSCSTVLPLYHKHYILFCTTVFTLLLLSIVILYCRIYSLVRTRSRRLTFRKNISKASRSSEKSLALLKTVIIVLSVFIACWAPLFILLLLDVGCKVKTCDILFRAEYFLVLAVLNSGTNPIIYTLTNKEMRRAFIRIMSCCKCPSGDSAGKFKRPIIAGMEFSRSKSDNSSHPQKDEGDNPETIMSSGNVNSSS
In words: S1P1 (EDG-1) GTP[γ-35S] binding assay, membranes of CHO cells. It counts as biochemical. As to conditions: agonistic activity in vitro; read-out: S1P-1 GTPyS/EC50. Here is the method: as §1
S1P1 (EDG-1) GTP [γ-^35S] assay: Homogenized membranes are prepared from CHO cell clones stably expressing a human EDG-1 N-terminal c-myc tag. Cells are grown in large culture dishes (500 cm^2) to a confluence between 80 and 90%. The culture medium is removed and 20 mL ice-cold buffer A (10 mM HEPES, pH 7.4, 10 mM EDTA, complete protease inhibitor cocktail [1 tablet/50 mL]) added. The cells are harvested by scraping and the cell suspension centrifuged at 750×g for 10 min at 4° C. The pellet is resuspended in 10 mL ice-cold buffer B (20 mM HEPES, pH 7.4, 100 mM NaCl, 10 mM MgCl2, 1 mM EDTA). The cell suspension is homogenized on ice, using a Polytron homogenizer at 25000 rpm at three intervals of 20 seconds each. Then the homogenate is centrifuged at 26900×g for 30 min at 4° C. and the membrane protein pellet resuspended by vortexing in cold buffer B. The protein concentration is determined using the Bio Rad Protein Assay and human IgG as standard. The volume of the membrane protein suspension is adjusted to a final concentration of about 2 mg protein/mL. The solution is then once again homogenized (Polytron) on ice at 25000 rpm for 20 seconds before being aliquoted and stored at −80° C.
as §2

Experiment [4] concerns experimental autoimmune encephalomyelitis (EAE). In words: Chronic-progressive EAE model (therapeutic treatment). It counts as in vivo, DA rat. The conditions noted are these: therapeutic treatment after peak of disease; from day 15 post-immunization (after 4 days of treatment) until end of experiment; scale 0-5.

Each structure is given as a SMILES string.

As for `CC(C)Oc1ccc(-c2nc(-c3ccc(C4(N)COC4)cc3)no2)cc1C#N` [Example 1, 5-{3-[4-(3-Amino-oxetan-3-yl)-phenyl]-[1,2,4]oxadiazol-5-yl}-2-iso-propoxy-benzonitrile], the “effect on disease symptoms in acute EAE” value in experiment [1] is listed as “prevention of disease symptoms”. Further, the EC50 at S1P5 receptor was determined as 90 nM; in experiment [3], 10 nM. Besides, the “protection from autoimmune uveitis” value in experiment [2] is “dose-dependent protection from autoimmune uveitis”. Besides, the results for the “recovery of lymphocyte counts back to baseline” value in the experiment on circulating lymphocytes (1 mg/kg p.o.) and in the experiment on circulating lymphocytes (5 mg/kg p.o.) were “fully” and “partially recover back to baseline”, respectively. Besides, in the experiment on circulating lymphocytes (0.1 to 5 mg/kg p.o., Lewis rats), the peripheral lymphocyte counts entry is listed as “dose-dependent reduction”. Besides, the “time of maximal reduction of peripheral lymphocyte counts post-administration” value with circulating lymphocytes (1 or 5 mg/kg p.o., Lewis rats) came to 6 h. Also, the “clinical scores in chronic-progressive EAE” value in experiment [4] is reported as < 0.5.

Regarding `CC(C)Oc1ccc(-c2nc(-c3ccc(C4(O)COC4)cc3)no2)cc1C#N` [Example 2], the results for the EC50 (on S1P5 receptor; in experiment [3]) were 30 nM and 6 nM, respectively.

`CC(=O)c1cc(-c2nc(-c3ccc(C4(N)COC4)cc3)no2)ccc1OC(C)C` [Example 3]: the EC50 at S1P5 receptor came out at 180 nM; in experiment [3], 13 nM.

Turning to `CCOc1ccc(-c2nc(-c3ccc(C4(N)COC4)cc3)no2)cc1C#N` [Example 4], the EC50 on S1P5 receptor worked out at 300 nM; in experiment [3], 17 nM.

In the case of `CC(=O)c1cc(-c2nc(-c3ccc(C4(O)COC4)cc3)no2)ccc1OC(C)C` [Example 5], the EC50 on S1P5 receptor was found to be 310 nM; in experiment [3], 25 nM.

Consider `CCOc1ccc(-c2nc(-c3ccc(C4(O)COC4)cc3)no2)cc1C#N` [Example 6, 5-{3-[4-(3-Hydroxy-oxetan-3-yl)-phenyl]-[1,2,4]oxadiazol-5-yl}-2-ethoxy-benzonitrile], for which the EC50 on S1P5 receptor came to 280 nM; in experiment [3] it was 29 nM.
